Experimental data from article PMC11981937 (Nature, 2025).

Experiment: In vivo mortality (stray panel in source data sheet Fig. 3d)

Structure (SMILES): C[C@@]1(O)[C@H](O)[C@@H](CO)O[C@H]1n1ccc(N)nc1=O [2'CMC, reference compound]
- % Survival (2'CMC, d p.i. 0): 100%
- % Survival (2'CMC, d p.i. 1): 100%
- % Survival (2'CMC, d p.i. 2): 100%
- % Survival (2'CMC, d p.i. 3): 100%
- % Survival (2'CMC, d p.i. 4): 100%
- % Survival (2'CMC, d p.i. 5): 100%
- % Survival (2'CMC, d p.i. 6): 100%
- % Survival (2'CMC, d p.i. 7): 100%
- % Survival (2'CMC, d p.i. 8): 100%
- % Survival (2'CMC, d p.i. 9): 100%
- % Survival (2'CMC, d p.i. 10): 100%
- % Survival (2'CMC, d p.i. 11): 100%
- % Survival (2'CMC, d p.i. 12): 100%
- % Survival (2'CMC, d p.i. 13): 90%
- % Survival (2'CMC, d p.i. 14): 80%
- % Survival (2'CMC, d p.i. 15): 80%
- % Survival (2'CMC, d p.i. 16): 80%
- % Survival (2'CMC, d p.i. 17): 80%
- % Survival (2'CMC, d p.i. 18): 60%
- % Survival (2'CMC, d p.i. 19): 60%
- % Survival (2'CMC, d p.i. 20): 60%
- % Survival (2'CMC, d p.i. 21): 60%
- % Survival (2'CMC, d p.i. 22): 60%
- % Survival (2'CMC, d p.i. 23): 60%
- % Survival (2'CMC, d p.i. 24): 50%
- % Survival (2'CMC, d p.i. 25): 50%

Structure (SMILES): COc1cc(N[C@H](C(=O)c2c[nH]c3ccc(OC(F)(F)F)cc23)c2ccc(Cl)cc2OC)cc(S(C)(=O)=O)c1 [JNJ-1802]
- % Survival (802R_0.3, BID, d p.i. 0): 100%
- % Survival (802R_0.3, BID, d p.i. 1): 100%
- % Survival (802R_0.3, BID, d p.i. 2): 100%
- % Survival (802R_0.3, BID, d p.i. 3): 100%
- % Survival (802R_0.3, BID, d p.i. 4): 100%
- % Survival (802R_0.3, BID, d p.i. 5): 100%
- % Survival (802R_0.3, BID, d p.i. 6): 100%
- % Survival (802R_0.3, BID, d p.i. 7): 100%
- % Survival (802R_0.3, BID, d p.i. 8): 100%
- % Survival (802R_0.3, BID, d p.i. 9): 100%
- % Survival (802R_0.3, BID, d p.i. 10): 100%
- % Survival (802R_0.3, BID, d p.i. 11): 100%
- % Survival (802R_0.3, BID, d p.i. 12): 100%
- % Survival (802R_0.3, BID, d p.i. 13): 100%
- % Survival (802R_0.3, BID, d p.i. 14): 100%
- % Survival (802R_0.3, BID, d p.i. 15): 100%
- % Survival (802R_0.3, BID, d p.i. 16): 100%
- % Survival (802R_0.3, BID, d p.i. 17): 90%
- % Survival (802R_0.3, BID, d p.i. 18): 90%
- % Survival (802R_0.3, BID, d p.i. 19): 90%
- % Survival (802R_0.3, BID, d p.i. 20): 90%
- % Survival (802R_0.3, BID, d p.i. 21): 90%
- % Survival (802R_0.3, BID, d p.i. 22): 90%
- % Survival (802R_0.3, BID, d p.i. 23): 90%
- % Survival (802R_0.3, BID, d p.i. 24): 90%
- % Survival (802R_0.3, BID, d p.i. 25): 90%
- % Survival (802R_1, BID, d p.i. 0): 100%
- % Survival (802R_1, BID, d p.i. 1): 100%
- % Survival (802R_1, BID, d p.i. 2): 100%
- % Survival (802R_1, BID, d p.i. 3): 100%
- % Survival (802R_1, BID, d p.i. 4): 100%
- % Survival (802R_1, BID, d p.i. 5): 100%
- % Survival (802R_1, BID, d p.i. 6): 100%
- % Survival (802R_1, BID, d p.i. 7): 100%
- % Survival (802R_1, BID, d p.i. 8): 100%
- % Survival (802R_1, BID, d p.i. 9): 100%
- % Survival (802R_1, BID, d p.i. 10): 100%
- % Survival (802R_1, BID, d p.i. 11): 100%
- % Survival (802R_1, BID, d p.i. 12): 100%
- % Survival (802R_1, BID, d p.i. 13): 100%
- % Survival (802R_1, BID, d p.i. 14): 100%
- % Survival (802R_1, BID, d p.i. 15): 100%
- % Survival (802R_1, BID, d p.i. 16): 100%
- % Survival (802R_1, BID, d p.i. 17): 100%
- % Survival (802R_1, BID, d p.i. 18): 100%
- % Survival (802R_1, BID, d p.i. 19): 100%
- % Survival (802R_1, BID, d p.i. 20): 100%
- % Survival (802R_1, BID, d p.i. 21): 100%
- % Survival (802R_1, BID, d p.i. 22): 100%
- % Survival (802R_1, BID, d p.i. 23): 100%
- % Survival (802R_1, BID, d p.i. 24): 100%
- % Survival (802R_1, BID, d p.i. 25): 100%
- % Survival (802R_3, BID, d p.i. 0): 100%
- % Survival (802R_3, BID, d p.i. 1): 100%
- % Survival (802R_3, BID, d p.i. 2): 100%
- % Survival (802R_3, BID, d p.i. 3): 100%
- % Survival (802R_3, BID, d p.i. 4): 100%
- % Survival (802R_3, BID, d p.i. 5): 100%
- % Survival (802R_3, BID, d p.i. 6): 100%
- % Survival (802R_3, BID, d p.i. 7): 100%
- % Survival (802R_3, BID, d p.i. 8): 100%
- % Survival (802R_3, BID, d p.i. 9): 100%
- % Survival (802R_3, BID, d p.i. 10): 100%
- % Survival (802R_3, BID, d p.i. 11): 100%
- % Survival (802R_3, BID, d p.i. 12): 100%
- % Survival (802R_3, BID, d p.i. 13): 100%
- % Survival (802R_3, BID, d p.i. 14): 100%
- % Survival (802R_3, BID, d p.i. 15): 100%
- % Survival (802R_3, BID, d p.i. 16): 100%
- % Survival (802R_3, BID, d p.i. 17): 100%
- % Survival (802R_3, BID, d p.i. 18): 100%
- % Survival (802R_3, BID, d p.i. 19): 100%
- % Survival (802R_3, BID, d p.i. 20): 100%
- % Survival (802R_3, BID, d p.i. 21): 100%
- % Survival (802R_3, BID, d p.i. 22): 90%
- % Survival (802R_3, BID, d p.i. 23): 90%
- % Survival (802R_3, BID, d p.i. 24): 80%
- % Survival (802R_3, BID, d p.i. 25): 80%
- % Survival (802R_10, BID, d p.i. 0): 100%
- % Survival (802R_10, BID, d p.i. 1): 100%
- % Survival (802R_10, BID, d p.i. 2): 100%
- % Survival (802R_10, BID, d p.i. 3): 100%
- % Survival (802R_10, BID, d p.i. 4): 100%
- % Survival (802R_10, BID, d p.i. 5): 100%
- % Survival (802R_10, BID, d p.i. 6): 100%
- % Survival (802R_10, BID, d p.i. 7): 100%
- % Survival (802R_10, BID, d p.i. 8): 100%
- % Survival (802R_10, BID, d p.i. 9): 100%
- % Survival (802R_10, BID, d p.i. 10): 100%
- % Survival (802R_10, BID, d p.i. 11): 100%
- % Survival (802R_10, BID, d p.i. 12): 100%
- % Survival (802R_10, BID, d p.i. 13): 100%
- % Survival (802R_10, BID, d p.i. 14): 100%
- % Survival (802R_10, BID, d p.i. 15): 80%
- % Survival (802R_10, BID, d p.i. 16): 80%
- % Survival (802R_10, BID, d p.i. 17): 80%
- % Survival (802R_10, BID, d p.i. 18): 80%
- % Survival (802R_10, BID, d p.i. 19): 80%
- % Survival (802R_10, BID, d p.i. 20): 80%
- % Survival (802R_10, BID, d p.i. 21): 80%
- % Survival (802R_10, BID, d p.i. 22): 80%
- % Survival (802R_10, BID, d p.i. 23): 80%
- % Survival (802R_10, BID, d p.i. 24): 80%
- % Survival (802R_10, BID, d p.i. 25): 80%
